Data: patent US10081647B2, “Phosphate substituted quinolizine derivatives useful as HIV integrase inhibitors” (Merck Sharp & Dohme Corp., priority 2015, dated 2018)
Like-named read-outs stand apart in the source and are kept apart here.

Test system: HIV-1 (NL4-3 strain)
Assay: Assay for inhibition of HIV replication (MT4-gag-GFP reporter cell line, kinetic assay)
Assay type: cell-based
Conditions: IP from 4-parameter dose response curve
Method: This assay is useful for assessing the ability of a compound of the present inventiongin to inhibit HIV replication. The assay is a kinetic assay that employs a reporter cell line (MT4-gag-GFP) to quantify the number of new cells infected in each round of replication.
MT4-GFP cells (250,000 cells/ml) are bulk-infected with HIV-1 (NL4-3 strain) at low multiplicity of infection (MOI) in RPMI+10% FBS for 24 hours. Cells are then washed once in RPMI+10% FBS and resuspended in RPMI+0% or 10% or 100% normal human serum (NHS). Test compounds are serial-diluted in DMSO using an ECHO liquid handler. The infected MT4-GFP cells are added to a 384-well poly-D-lysine coated black plate with clear bottom in which the diluted test compounds are placed. The cells are seeded at 8,000 cells per well and the final DMSO concentration is adjusted to 0.4%. The infected cells (Green GFP cells) are then quantified at both 24 and 48 hours post incubation using Acumen eX3. Viral reproductive ratio (R0) is determined using the number of infected cells at 48 hours divided by the number of infected cells at 24 hours. Percent viral growth inhibition is calculated by [1−(R−Rtripledrug)/(RDMSO−Rtripledrug)]*100. Compound potency IP or IC50 can be determined using a 4-parameter dose response curve analysis.

[1] = infected MT4-GFP cells in 100% normal human serum, read-out: WILD TYPE CELL ASSAY Viking IP (100% NHS)
[2] = infected MT4-GFP cells in RPMI + 0% normal human serum, read-out: WILD TYPE CELL ASSAY Viking IP (0% NHS)
[3] = Human immunodeficiency virus 1, NL43, infected MT4-GFP cells in 100% normal human serum, read-out: WILD TYPE CELL ASSAY Viking IP (100% NHS)
[4] = Human immunodeficiency virus 1, NL43, infected MT4-GFP cells in RPMI + 0% normal human serum, read-out: WILD TYPE CELL ASSAY Viking IP (0% NHS)

SMILES	IC50 [1]	IC50 [2]	IC50 [3]	IC50 [4]
CCOP(=O)(CCOCC1(C)C(=O)c2c(O)c(=O)c(C(=O)NCc3ccc(F)cc3F)cn2CC1OC)OCC (centres unmarked) [Compound 32]	425 nM	7.5 nM		
CCOP(=O)(CCOCC1(C)C(=O)c2c(O)c(=O)c(C(=O)NCc3ccc(F)cc3F)cn2CC1OC)OCC (centres unmarked) [Compound 33]	188 nM	13 nM		
CCOP(=O)(CCOCC1(C)C(=O)c2c(O)c(=O)c(C(=O)NCc3ccc(F)cc3F)cn2CC1OC)OCC (centres unmarked) [Compound 34]	238 nM	8.2 nM		
CCOP(=O)(CCOCC1(C)C(=O)c2c(O)c(=O)c(C(=O)NCc3ccc(F)cc3F)cn2CC1OC)OCC (centres unmarked) [Compound 35]	86 nM	3.5 nM		
COC1Cn2cc(C(=O)NCc3ccc(F)cc3F)c(=O)c(O)c2C(=O)C1(C)COCCP(=O)(O)O (centres unmarked) [Compound 36]	3600 nM	629 nM		
COC1Cn2cc(C(=O)NCc3ccc(F)cc3F)c(=O)c(O)c2C(=O)C1(C)COCCP(=O)(O)O (centres unmarked) [Compound 37]	> 8000 nM	> 1000 nM		
COC1Cn2cc(C(=O)NCc3ccc(F)cc3F)c(=O)c(O)c2C(=O)C1(C)COCCP(=O)(O)O (centres unmarked) [Compound 38]	6050 nM	738 nM		
COC1Cn2cc(C(=O)NCc3ccc(F)cc3F)c(=O)c(O)c2C(=O)C1(C)COCCP(=O)(O)O (centres unmarked) [Compound 39]	6930 nM	337 nM		
COC1Cn2cc(C(=O)NCc3ccc(F)cc3F)c(=O)c(O)c2C(=O)C1(C)COCCP(=O)(OCOC(=O)OC(C)C)OCOC(=O)OC(C)C (centres unmarked) [Compound 40]	118 nM	0.5 nM		
COC1Cn2cc(C(=O)NCc3ccc(F)cc3F)c(=O)c(O)c2C(=O)C1(C)COCCP(=O)(OCOC(=O)OC(C)C)OCOC(=O)OC(C)C (centres unmarked) [Compound 41]	> 8000 nM	0.97 nM		
COC1Cn2cc(C(=O)NCc3ccc(F)cc3F)c(=O)c(O)c2C(=O)C1(C)COCCP(=O)(OCOC(=O)OC(C)C)OCOC(=O)OC(C)C (centres unmarked) [Compound 42]	407 nM	1.2 nM		
COC1Cn2cc(C(=O)NCc3ccc(F)cc3F)c(=O)c(O)c2C(=O)C1(C)COCCP(=O)(OCOC(=O)OC(C)C)OCOC(=O)OC(C)C (centres unmarked) [Compound 43]	1480 nM	1.4 nM		
CCOP(=O)(CCCOCCC1(C)C(=O)c2c(O)c(=O)c(C(=O)NCc3ccc(F)cc3F)cn2CC1OC)OCC (centres unmarked) [Compound 44]	159 nM	7.2 nM		
CCOP(=O)(CCCOCCC1(C)C(=O)c2c(O)c(=O)c(C(=O)NCc3ccc(F)cc3F)cn2CC1OC)OCC (centres unmarked) [Compound 45]	300 nM	8.2 nM		
CCOP(=O)(CCCOCCC1(C)C(=O)c2c(O)c(=O)c(C(=O)NCc3ccc(F)cc3F)cn2CC1OC)OCC (centres unmarked) [Compound 46]	102 nM	4.2 nM		
CCOP(=O)(CCCOCCC1(C)C(=O)c2c(O)c(=O)c(C(=O)NCc3ccc(F)cc3F)cn2CC1OC)OCC (centres unmarked) [Compound 47]	4600 nM	298 nM		
COC1Cn2cc(C(=O)NCc3ccc(F)cc3F)c(=O)c(O)c2C(=O)C1(C)CCOCCCP(=O)(O)O (centres unmarked) [Compound 48]			6940 nM	626 nM
COC1Cn2cc(C(=O)NCc3ccc(F)cc3F)c(=O)c(O)c2C(=O)C1(C)CCOCCCP(=O)(O)O (centres unmarked) [Compound 49]	> 8400 nM	> 1050 nM		
COC1Cn2cc(C(=O)NCc3ccc(F)cc3F)c(=O)c(O)c2C(=O)C1(C)CCOCCCP(=O)(O)O (centres unmarked) [Compound 50]	> 8400 nM	> 1050 nM		
CCOP(=O)(CCOCCC1(C)C(=O)c2c(O)c(=O)c(C(=O)NCc3ccc(F)cc3F)cn2CC1OC)OCC (centres unmarked) [Compound 54]	223 nM	11 nM		
CCOP(=O)(CCOCCC1(C)C(=O)c2c(O)c(=O)c(C(=O)NCc3ccc(F)cc3F)cn2CC1OC)OCC (centres unmarked) [Compound 55]	128 nM	6.7 nM		
CCOP(=O)(CCOCCC1(C)C(=O)c2c(O)c(=O)c(C(=O)NCc3ccc(F)cc3F)cn2CC1OC)OCC (centres unmarked) [Compound 56]	86 nM	4.6 nM		
CCOP(=O)(CCOCCC1(C)C(=O)c2c(O)c(=O)c(C(=O)NCc3ccc(F)cc3F)cn2CC1OC)OCC (centres unmarked) [Compound 57]	84 nM	7 nM		
COC1Cn2cc(C(=O)NCc3ccc(F)cc3F)c(=O)c(O)c2C(=O)C1(C)CCOCCP(=O)(O)O (centres unmarked) [Compound 58]	> 8400 nM			> 1050 nM
COC1Cn2cc(C(=O)NCc3ccc(F)cc3F)c(=O)c(O)c2C(=O)C1(C)CCOCCP(=O)(O)O (centres unmarked) [Compound 59]	4260 nM	> 1050 nM		

SMILES	IC50 [1]	IC50 [2]	IC50 [3]	IC50 [4]
COC1Cn2cc(C(=O)NCc3ccc(F)cc3F)c(=O)c(O)c2C(=O)C1(C)CCOCCP(=O)(O)O (centres unmarked) [Compound 60]	5180 nM	765 nM		
COC1Cn2cc(C(=O)NCc3ccc(F)cc3F)c(=O)c(O)c2C(=O)C1(C)CCOCCP(=O)(O)O (centres unmarked) [Compound 61]	2500 nM	970 nM		
COC1Cn2cc(C(=O)NCc3ccc(F)cc3F)c(=O)c(O)c2C(=O)C1(C)CCOCCP(=O)(OCOC(=O)OC(C)C)OCOC(=O)OC(C)C (centres unmarked) [Compound 62]	4700 nM	14 nM		
COC1Cn2cc(C(=O)NCc3ccc(F)cc3F)c(=O)c(O)c2C(=O)C1(C)CCOCCP(=O)(OCOC(=O)OC(C)C)OCOC(=O)OC(C)C (centres unmarked) [Compound 63]	566 nM	4.6 nM		
COC1Cn2cc(C(=O)NCc3ccc(F)cc3F)c(=O)c(O)c2C(=O)C1(C)CCOCCP(=O)(OCOC(=O)OC(C)C)OCOC(=O)OC(C)C (centres unmarked) [Compound 64]	289 nM	2.9 nM		
CCOP(=O)(CCOC1Cn2cc(C(=O)NCc3ccc(F)cc3F)c(=O)c(O)c2C(=O)C1(C)C)OCC (centres unmarked) [Compound 65]	131 nM	5.4 nM		
CCOP(=O)(CCOC1Cn2cc(C(=O)NCc3ccc(F)cc3F)c(=O)c(O)c2C(=O)C1(C)C)OCC (centres unmarked) [Compound 66]	1280 nM	19 nM		
CC1(C)C(=O)c2c(O)c(=O)c(C(=O)NCc3ccc(F)cc3F)cn2CC1OCCP(=O)(O)O (centres unmarked) [Compound 67]			4260 nM	669 nM
CC1(C)C(=O)c2c(O)c(=O)c(C(=O)NCc3ccc(F)cc3F)cn2CC1OCCP(=O)(O)O (centres unmarked) [Compound 68]	> 8000 nM	> 1000 nM		
CC(C)OC(=O)OCOP(=O)(CCOC1Cn2cc(C(=O)NCc3ccc(F)cc3F)c(=O)c(O)c2C(=O)C1(C)C)OCOC(=O)OC(C)C (centres unmarked) [Compound 69]	25 nM	1.1 nM		
CC(C)OC(=O)OCOP(=O)(CCOC1Cn2cc(C(=O)NCc3ccc(F)cc3F)c(=O)c(O)c2C(=O)C1(C)C)OCOC(=O)OC(C)C (centres unmarked) [Compound 70]	2020 nM	13 nM		
CCOP(=O)(CCCOC1Cn2cc(C(=O)NCc3ccc(F)cc3F)c(=O)c(O)c2C(=O)C1(C)C)OCC (centres unmarked) [Compound 71]	173 nM	9.5 nM		
CCOP(=O)(CCCOC1Cn2cc(C(=O)NCc3ccc(F)cc3F)c(=O)c(O)c2C(=O)C1(C)C)OCC (centres unmarked) [Compound 72]	923 nM	26 nM		
CC1(C)C(=O)c2c(O)c(=O)c(C(=O)NCc3ccc(F)cc3F)cn2CC1OCCCP(=O)(O)O (centres unmarked) [Compound 73]			> 8400 nM	836 nM
CC1(C)C(=O)c2c(O)c(=O)c(C(=O)NCc3ccc(F)cc3F)cn2CC1OCCCP(=O)(O)O (centres unmarked) [Compound 74]	> 8400 nM	> 1050 nM		
CC(C)OC(=O)OCOP(=O)(CCCOC1Cn2cc(C(=O)NCc3ccc(F)cc3F)c(=O)c(O)c2C(=O)C1(C)C)OCOC(=O)OC(C)C (centres unmarked) [Compound 75]	191 nM	6.3 nM		
CC(C)OC(=O)OCOP(=O)(CCCOC1Cn2cc(C(=O)NCc3ccc(F)cc3F)c(=O)c(O)c2C(=O)C1(C)C)OCOC(=O)OC(C)C (centres unmarked) [Compound 76]	2770 nM	45 nM		
CCOP(=O)(CCOC1Cn2cc(C(=O)NCc3ccc(F)cc3F)c(=O)c(O)c2C(=O)C1(C)CCOC)OCC (centres unmarked) [Compound 77]	128 nM	5.5 nM		
CCOP(=O)(CCOC1Cn2cc(C(=O)NCc3ccc(F)cc3F)c(=O)c(O)c2C(=O)C1(C)CCOC)OCC (centres unmarked) [Compound 78]	580 nM	17 nM		
CCOP(=O)(CCOC1Cn2cc(C(=O)NCc3ccc(F)cc3F)c(=O)c(O)c2C(=O)C1(C)CCOC)OCC (centres unmarked) [Compound 79]	177 nM	15 nM		
CCOP(=O)(CCOC1Cn2cc(C(=O)NCc3ccc(F)cc3F)c(=O)c(O)c2C(=O)C1(C)CCOC)OCC (centres unmarked) [Compound 80]	2750 nM	378 nM		
COCCC1(C)C(=O)c2c(O)c(=O)c(C(=O)NCc3ccc(F)cc3F)cn2CC1OCCP(=O)(O)O (centres unmarked) [Compound 81]	2120 nM	665 nM		
COCCC1(C)C(=O)c2c(O)c(=O)c(C(=O)NCc3ccc(F)cc3F)cn2CC1OCCP(=O)(O)O (centres unmarked) [Compound 82]	> 8000 nM	729 nM		
COCCC1(C)C(=O)c2c(O)c(=O)c(C(=O)NCc3ccc(F)cc3F)cn2CC1OCCP(=O)(O)O (centres unmarked) [Compound 83]	5380 nM	> 1000 nM		
